Measured values as given in patent US20210087206A1, “MACROCYCLIC KINASE INHIBITORS AND THEIR USE” (TURNING POINT THERAPEUTICS, INC., priority 2017, published 2021).

Columns and labels:
Test in all cases: Cell proliferation assay (CellTiter-Glo)
Assay type in all cases: cell-based
BaF3 EML4-ALK = molecular target: T1, BaF3 EML4-ALK (Homo sapiens, UniProt Q9UM73); details: anti-cell proliferation, 72 hours
T1 construct: The EML4-ALK gene (variant 1) was synthesized at GenScript and cloned into pCDH-CMV-MCS-EF1-Puro plasmid (System Biosciences, Inc); fused on or other part: EML4 N-terminal part (variant 1: exons 1-13, with the coiled-coil that oligomerises the fusion) fused to the intracellular part of ALK, which contains the kinase domain; Q9HC35 (Echinoderm microtubule-associated protein-like 4)
Outline: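 Ba/F3 cells were lentivirally transduced with EML4-ALK variant 1 and selected for puromycin resistance and IL-3-independent growth. Proliferation was measured by CellTiter-Glo ATP luminescence to give IC50.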

KG-1 cell (OP2-FGFR1) = details: Homo sapiens, anti-cell proliferation, 72 hours
Outline: (§1)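 Cells seeded 24 h, then exposed to compounds for 72 h at 37° C., 5% CO2. Proliferation read by CellTiter-Glo luminescent ATP detection; IC50 from dose-response fits.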

KM12 (TPM3-TRKA) = details: Homo sapiens, anti-cell proliferation, 72 hours
Outline: as §1

T1 sequence (Q9UM73 whole entry, stated change not applied, the tested form may be a part): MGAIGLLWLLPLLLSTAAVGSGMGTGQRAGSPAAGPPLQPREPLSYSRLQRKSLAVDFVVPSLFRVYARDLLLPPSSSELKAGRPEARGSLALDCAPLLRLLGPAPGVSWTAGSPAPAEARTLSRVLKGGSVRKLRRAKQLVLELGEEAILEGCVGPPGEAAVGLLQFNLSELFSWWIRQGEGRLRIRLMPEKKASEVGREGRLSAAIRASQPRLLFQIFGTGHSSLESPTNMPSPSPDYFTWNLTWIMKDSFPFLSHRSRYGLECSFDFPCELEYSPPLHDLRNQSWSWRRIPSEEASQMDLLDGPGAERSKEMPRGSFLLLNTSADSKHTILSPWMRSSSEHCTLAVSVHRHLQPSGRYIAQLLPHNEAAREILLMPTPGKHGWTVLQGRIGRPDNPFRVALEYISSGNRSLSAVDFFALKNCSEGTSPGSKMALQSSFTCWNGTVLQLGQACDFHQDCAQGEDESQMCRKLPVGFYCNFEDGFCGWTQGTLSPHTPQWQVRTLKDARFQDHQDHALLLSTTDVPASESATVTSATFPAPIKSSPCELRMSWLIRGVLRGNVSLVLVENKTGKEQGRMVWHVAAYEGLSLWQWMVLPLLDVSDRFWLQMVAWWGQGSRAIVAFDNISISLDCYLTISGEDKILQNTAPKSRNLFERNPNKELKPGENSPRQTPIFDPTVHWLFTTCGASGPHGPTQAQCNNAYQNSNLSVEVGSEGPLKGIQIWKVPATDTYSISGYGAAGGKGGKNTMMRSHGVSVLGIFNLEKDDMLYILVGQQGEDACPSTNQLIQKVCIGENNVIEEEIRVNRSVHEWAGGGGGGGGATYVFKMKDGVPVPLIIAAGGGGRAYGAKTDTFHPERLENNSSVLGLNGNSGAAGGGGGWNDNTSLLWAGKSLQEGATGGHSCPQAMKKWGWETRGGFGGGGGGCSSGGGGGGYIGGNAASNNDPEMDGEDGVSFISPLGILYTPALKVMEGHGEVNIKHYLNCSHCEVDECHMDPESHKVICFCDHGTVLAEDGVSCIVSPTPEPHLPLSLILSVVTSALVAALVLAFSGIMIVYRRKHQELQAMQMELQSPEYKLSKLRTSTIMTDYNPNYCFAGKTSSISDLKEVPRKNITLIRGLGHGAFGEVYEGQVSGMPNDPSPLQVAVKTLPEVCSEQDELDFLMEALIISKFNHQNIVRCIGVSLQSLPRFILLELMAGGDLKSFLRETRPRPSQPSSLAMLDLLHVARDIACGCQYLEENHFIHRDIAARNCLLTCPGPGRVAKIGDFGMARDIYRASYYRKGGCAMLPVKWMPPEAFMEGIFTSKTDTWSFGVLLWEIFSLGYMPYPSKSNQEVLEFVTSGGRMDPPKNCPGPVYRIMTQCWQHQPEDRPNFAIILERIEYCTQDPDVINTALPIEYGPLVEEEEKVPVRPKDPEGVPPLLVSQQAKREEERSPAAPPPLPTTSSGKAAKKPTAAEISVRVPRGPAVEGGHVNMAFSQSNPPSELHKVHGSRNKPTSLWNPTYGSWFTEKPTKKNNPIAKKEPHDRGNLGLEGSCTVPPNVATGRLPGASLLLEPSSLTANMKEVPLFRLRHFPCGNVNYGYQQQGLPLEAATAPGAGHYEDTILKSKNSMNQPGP

SMILES	IC50 (BaF3 EML4-ALK) [nM]	IC50 (KG-1 cell (OP2-FGFR1)) [nM]	IC50 (KM12 (TPM3-TRKA)) [nM]
C[C@@H]1COc2ncc(F)cc2CN2c3nc4c(cnn4cc3OCC23CCC3)C(=O)N1 [Compound 58, (13′R)-8′-fluoro-13′-methyl-3′H,6′H,12′H,13′H,14′H,15′H-spiro[cyclobutane-1,4′-[2,11]-dioxa[5,10,14,17,18,19]hexaaza-[18,1](metheno)[1,4]oxazino-[3,4-i]pyrazolo[4,3-f]pyrido-[3,2-l][1,4,8,10]oxatriazacyclo-tridecin]-15′-one]	203	1620	< 0.2
C[C@@H]1COc2ncc(F)cc2CN2C[C@H](O)COc3cn4ncc(c4nc32)C(=O)N1 [Compound 61, (4S,14R)-9-fluoro-4-hydroxy-14-methyl-4,5,14,15-tetrahydro-3H,7H-19,1-(methano)[1,4]-oxazepino[3,4-i]pyrazolo[4,3-f]-pyrido[3,2-l][1,4,8,10]oxatriaza-cyclotridecin-16(13H)-one]	4000	482	482
C[C@@H]1CCOc2ncc(F)cc2CN2c3nc4c(cnn4cc3OC[C@H]2C)C(=O)N1 [Compound 32, (6R,16R)-12-fluoro-6,16-dimethyl-5,6,7,8,16,17-hexahydro-4H,14H-1,19-(metheno)[1,4]oxazino[4,3-e]pyrazolo[3,4-h]pyrido[2,3-b] [1,5,7,11]oxatriazacyclotetradecin-4-one]	74.6	137	< 0.2
C[C@@H]1COc2ncc(F)cc2CN2c3nc4c(cnn4cc3OCC23CC(F)(F)C3)C(=O)N1 [Compound 63, (13′R)-3,3,8′-trifluoro-13′-methyl-3′H,6′H,12′H,13′H,14′H,15′H-spiro[cyclobutane-1,4′-[2,11]-dioxa[5,10,14,17,18,19]hexaaza-[18,1](metheno)[1,4]oxazino[3,4-i]pyrazolo[4,3-f]pyrido[3,2-l] [1,4,8,10]oxatriazacyclotridecin]-15′-one]	576	10000	< 0.2
C[C@@H]1COc2cn3ncc4c3nc2N(Cc2cc(F)cnc2O[C@@H](C)CNC4=O)C1 [Compound 30, (4S,13S)-9-fluoro-4,13-dimethyl-4,5,14,15-tetrahydro-3H,7H-19,1-(metheno)[1,4]oxazepino[3,4-i]-pyrazolo[4,3-f]pyrido[3,2-l] [1,4,8,10]oxatriazacyclotridecin-16(13H)-one]	7380	536	42
C[C@H]1CNC(=O)c2cnn3cc4c(nc23)N(Cc2cc(F)ccc2O1)[C@@H](C)CCO4 [Compound 18, (5S,13S)-9-fluoro-5,13-dimethyl-4,5,14,15-tetrahydro-3H,7H-19,1-(metheno)[1,4]oxazepino[3,4-i]-pyrazolo[4,3-f][1,4,8,10]benzo-xatriaxacyclotridecin-16(13H)-one]	> 10000	> 10000	< 0.2
C[C@@H]1COc2ncc(F)cc2CN2c3nc4c(cnn4cc3OC[C@H]2C2CC2)C(=O)N1 [Compound 25, (4R,13R)-4-cyclopropyl-8-fluoro-13-methyl-3,4,13,14-tetrahydro-6H-18,1-(metheno)[1,4]oxazino[3,4-i]pyrazolo[4,3-f]pyrido[3,2-l][1,4,8,10]oxatriazacyclotridecin-15(12H)-one]	89.1	131	< 0.2
C[C@@H]1CCOc2cn3ncc4c3nc2N1Cc1cc(F)ccc1O[C@@H](C)CNC4=O [Compound 19, (5R,13S)-9-fluoro-5,13-dimethyl-4,5,14,15-tetrahydro-3H,7H-19,1-(metheno)[1,4]oxazepino[3,4-i]-pyrazolo[4,3-f][1,4,8,10]benzo-xatriazacyclotridecin-16(13H)-one]	6220	9950	< 0.2
C[C@H]1CNC(=O)c2cnn3cc4c(nc23)N(CCO4)Cc2c(ccc(F)c2Cl)O1 [Compound 1, (12S)-7-chloro-8-fluoro-12-methyl-3,4,13,14-tetrahydro-6H-18,1-(metheno)[1,4]oxazino[3,4-i]pyrazolo[4,3-f][1,4,8,10]benzoxatriazacyclotridecin-15(12H)-one]	969	1330	0.2
C[C@@H]1COc2cn3ncc4c3nc2N(Cc2cc(F)cnc2OC[C@@H](C)NC4=O)C1 [Compound 29, (4S,14R)-9-fluoro-4,14-dimethyl-4,5,14,15-tetrahydro-3H,7H-19,1-(metheno)[1,4]oxazepino[3,4-i]-pyrazolo[4,3-f]pyrido[3,2-l] [1,4,8,10]oxatriazacyclotridecin-16(13H)-one]	826	130	9.6
C[C@@H]1COc2cn3ncc4c3nc2N(Cc2cc(F)cnc2OC[C@@H](C)CNC4=O)C1 [Compound 100, (7S,17S)-12-fluoro-7,17-dimethyl-5,6,7,8,17,18-hexahydro-4H,14H,16H-1,20-(metheno)[1,4]oxazepino-[4,3-e]pyrazolo[3,4-h]pyrido-[2,3-b][1,5,7,11]oxatriaza-cyclotetradecin-4-one]	2500	2800	72.8
C[C@H]1CNC(=O)c2cnn3cc4c(nc23)N(Cc2cc(F)cnc2O1)C1(CCCC1)CO4 [Compound 57, (12′S)-8′-fluoro-12′-methyl-3′H,6′H,12′H,13′H,14′H,15′H-spiro[cyclopentane-1,4′-[2,11]-dioxa[5,10,14,17,18,19]hexaaza-[18,1](metheno)[1,4]oxazino[3,4-i]pyrazolo[4,3-f]pyrido[3,2-l] [1,4,8,10]oxatriazacyclotridecin]-15′-one]	2210	4000	< 0.2

Molecules with a lower IC50 (BaF3 EML4-ALK), results first:

IC50 (BaF3 EML4-ALK) [nM]	SMILES	IC50 (KG-1 cell (OP2-FGFR1)) [nM]	IC50 (KM12 (TPM3-TRKA)) [nM]
23.7	C[C@@H]1COc2cn3ncc4c3nc2N1Cc1cc(F)cnc1OCC1(CC1)NC4=O [Compound 34, (4′R)-8′-fluoro-4′-methyl-3′H,4′H,6′H,12′H,14′H,15′H-spiro[cyclopropane-1,13′-[2,11]dioxa[5,10,14,17,18,19]hexaaza[18,1](metheno)[1,4]oxazino[3,4-i]pyrazolo[4,3-f]pyrido[3,2-l][1,4,8,10]oxatriazacyclotridecin]-15′-one]	12.5	< 0.2
37.7	C[C@@H]1COc2cn3ncc4c3nc2N1Cc1cc(F)ccc1O[C@@H](C)CNC4=O [Compound 5, (4R,12S)-8-fluoro-4,12-dimethyl-3,4,13,14-tetrahydro-6H-18,1-(metheno)[1,4]oxazino[3,4-i]-pyrazolo[4,3-f][1,4,8,10]benzo-xatriazacyclotridecin-15(12H)-one]	194	0.2
16.6	C[C@@H]1COc2cn3ncc4c3nc2N1Cc1cc(F)cnc1O[C@H]1C[C@H](C1)NC4=O [Compound 95, (6S,8s,16R)-12-fluoro-16-methyl-5,6,7,8,16,17-hexahydro-4H,14H-6,8-methano-1,19-(metheno)[1,4]-oxazino[4,3-e]pyrazolo[3,4-h]-pyrido[2,3-b][1,5,7,11]oxatriaza-cyclotetradecin-4-one]	14.1	< 0.2
28	CC[C@@H]1COc2cn3ncc4c3nc2N1Cc1cc(F)ccc1OC[C@@H](C)NC4=O [Compound 13, (4R,13R)-4-ethyl-8-fluoro-13-methyl-3,4,13,14-tetrahydro-6H-18,1-(metheno)[1,4]oxazino[3,4-i]pyrazolo[4,3-f][1,4,8,10]benzo-xatriazacyclotridecin-15(12H)-one]	145	0.2
32.4	C[C@@H]1COc2cn3ncc4c3nc2N1Cc1cc(F)cnc1OCC1(CC1)CNC4=O [Compound 67, (16′R)-12′-fluoro-16′-methyl-4′H,5′H,6′H,8′H,14′H,16′H,17′H-spiro[cyclopropane-1,7′-[9,18]-dioxa[1,2,5,10,15,20]hexaaza-[1,19](metheno)[1,4]oxazino[4,3-e]pyrazolo[3,4-h]pyrido[2,3-b] [1,5,7,11]oxatriazacyclotetradecin]-4′-one]	8.8	< 0.2
68	C[C@@H]1COc2cn3ncc4c3nc2N1Cc1cc(F)cnc1OCC1(CCC1)CNC4=O [Compound 47, (16′R)-12′-fluoro-16′-methyl-4′H,5′H,6′H,8′H,14′H,16′H,17′H-spiro[cyclobutane-1,7′-[9,18]-dioxa[1,2,5,10,15,20]hexaaza-[1,19](metheno)[1,4]oxazino-[4,3-e]pyrazolo[3,4-h]pyrido-[2,3-b][1,5,7,11]oxatriazacyclo-tetradecin]-4′-one]	24.2	< 0.2
19.8	CC[C@@H]1COc2cn3ncc4c3nc2N1Cc1cc(F)cnc1OCC[C@H](C)NC4=O [Compound 75, (6S,16R)-16-ethyl-12-fluoro-6-methyl-5,6,7,8,16,17-hexahydro-4H,14H-1,19-(metheno)[1,4]-oxazino[4,3-e]pyrazolo[3,4-h]-pyrido[2,3-b][1,5,7,11]oxatriaza-cyclotetradecin-4-one]	9.7	< 0.2
11.7	C[C@@H]1COc2ccc(F)cc2CN2c3nc4c(cnn4cc3OC[C@H]2C)C(=O)N1 [Compound 9, (4R,13R)-8-fluoro-4,13-dimethyl-3,4,13,14-tetrahydro-6H-18,1-(metheno)[1,4]oxazino[3,4-i]-pyrazolo[4,3-f][1,4,8,10]benzo-xatriazacyclotridecin-15(12H)-one]	111	0.2
